Measured values from PubChem BioAssay AID330 (DTP/NCI, 2004).
Several values for one entry are separate records, joined by “and”; a condition that tells them apart may be missing. Identical values can stand only once. Inconclusive results and toxic doses are left out. How the source made its calls: active means survival T/C of 150% or more; inactive means T/C below 125% in these data.

System: P388 leukemia ip, CD2F1 mice, survival T/C
Assay: NCI In Vivo Anticancer Drug Screen. Data for tumor model P388 Leukemia (intraperitoneal) in CD2F1 (CDF1) mice
Conditions: endpoint: median survival time, higher = longer survival
How it was run: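 Mice carrying the transplanted tumor received test compound or vehicle. Survival was recorded in each group, and the value is the treated-group measurement divided by that of the vehicle-treated control group.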

[1] = dose: 50.0 mg/kg/injection, schedule: Q01DX005 (ip), vehicle: Klucel (hydroxypropylcellulose) (HPC)
[2] = dose: 100.0 mg/kg/injection, schedule: Q01DX005 (ip), vehicle: Klucel (hydroxypropylcellulose) (HPC)
[3] = dose: 200.0 mg/kg/injection, schedule: Q01DX005 (ip), vehicle: Klucel (hydroxypropylcellulose) (HPC)
[4] = dose: 50.0 mg/kg/injection, schedule: Q01DX009 (ip), vehicle: saline with Tween-80
[5] = dose: 100.0 mg/kg/injection, schedule: Q01DX009 (ip), vehicle: saline with Tween-80
[6] = dose: 200.0 mg/kg/injection, schedule: Q01DX009 (ip), vehicle: saline with Tween-80
[7] = dose: 50.0 mg/kg/injection, schedule: Q01DX005 (ip), vehicle: saline with Tween-80
[8] = dose: 100.0 mg/kg/injection, schedule: Q01DX005 (ip), vehicle: saline with Tween-80

Measured: T/C

C1=CC2CC1CC2[P+](c1ccccc1)(c1ccccc1)c1ccccc1 (configuration not stated)
inactive: dose: 12.5 mg/kg/injection, schedule: Q01DX001 (ip), vehicle: saline 102 % of control | dose: 25.0 mg/kg/injection, schedule: Q01DX001 (ip), vehicle: saline 115 % of control | dose: 50.0 mg/kg/injection, schedule: Q01DX001 (ip), vehicle: saline 97 % of control

COC1OC(CO)C(O)C(O)C1N1C(=O)c2ccccc2C1=O (configuration not stated)
inactive: [1] 100 % of control | dose: 50.0 mg/kg/injection, schedule: Q01DX005 (ip), vehicle: saline 97 % of control | [2] 98 % of control | dose: 100.0 mg/kg/injection, schedule: Q01DX005 (ip), vehicle: saline 97 % of control | [3] 97 % of control | dose: 200.0 mg/kg/injection, schedule: Q01DX005 (ip), vehicle: saline 101 % of control

Cc1ccc(S(=O)(=O)NC(=O)n2nc(C)cc2C)cc1
inactive: [1] 96 % of control | [2] 96 % of control | [3] 103 % of control

O=S(=O)(N1CCCCC1)n1nnc2cc3ccccc3cc21
inactive: dose: 50.0 mg/kg/injection, schedule: Q01DX009 (ip), vehicle: acetone 98 % of control | dose: 100.0 mg/kg/injection, schedule: Q01DX009 (ip), vehicle: acetone 97 % of control | dose: 200.0 mg/kg/injection, schedule: Q01DX009 (ip), vehicle: acetone 97 % of control

C/C(=N/NC(N)=O)c1cn[nH]c1C
inactive: dose: 60.0 mg/kg/injection, schedule: Q01DX005 (ip), vehicle: Klucel (hydroxypropylcellulose) (HPC) 117 % of control | dose: 120.0 mg/kg/injection, schedule: Q01DX005 (ip), vehicle: Klucel (hydroxypropylcellulose) (HPC) 124 % of control

OC(CNC1CCCCC1)CO/N=C1\CCSc2c(Cl)cccc21 (configuration not stated)
inactive: dose: 3.12 mg/kg/injection, schedule: Q04DX002 (ip), vehicle: Klucel (hydroxypropylcellulose) (HPC) 94 % of control | dose: 6.25 mg/kg/injection, schedule: Q04DX002 (ip), vehicle: Klucel (hydroxypropylcellulose) (HPC) 99 % of control | dose: 12.5 mg/kg/injection, schedule: Q04DX002 (ip), vehicle: Klucel (hydroxypropylcellulose) (HPC) 103 % of control | dose: 25.0 mg/kg/injection, schedule: Q04DX002 (ip), vehicle: Klucel (hydroxypropylcellulose) (HPC) 100 % of control | dose: 100.0 mg/kg/injection, schedule: Q04DX002 (ip), vehicle: Klucel (hydroxypropylcellulose) (HPC) 96 % of control | dose: 200.0 mg/kg/injection, schedule: Q04DX002 (ip), vehicle: Klucel (hydroxypropylcellulose) (HPC) 87 % of control

CP(=O)(N/N=C\C(=O)O)c1ccccc1 (configuration not stated)
inactive: dose: 12.5 mg/kg/injection, schedule: Q01DX009 (ip), vehicle: other 99 % of control | dose: 25.0 mg/kg/injection, schedule: Q01DX009 (ip), vehicle: other 91 % of control | dose: 50.0 mg/kg/injection, schedule: Q01DX009 (ip), vehicle: other 100 % of control | dose: 100.0 mg/kg/injection, schedule: Q01DX009 (ip), vehicle: other 97 % of control | dose: 200.0 mg/kg/injection, schedule: Q01DX009 (ip), vehicle: other 98 % of control | dose: 400.0 mg/kg/injection, schedule: Q01DX009 (ip), vehicle: other 97 % of control

CCSC(=N)N=Nc1ccc(O)cc1
inactive: dose: 25.0 mg/kg/injection, schedule: Q01DX009 (ip), vehicle: saline with Tween-80 100 % of control | [4] 99 % of control | [5] 99 % of control | [6] 93 % of control

CN1c2ccccc2C(C)(C)C12Cc1c(N)ncc(C#N)c1N2 (configuration not stated)
inactive: [4] 91 % of control | [5] 88 % of control | [6] 93 % of control

Cc1nc(Nc2ccccc2)c2c(C)c[nH]c2n1
inactive: [1] 100 % of control | [2] 94 % of control

O=CC(=C\c1cccs1)/C(C=O)=C\c1cccs1
inactive: dose: 12.5 mg/kg/injection, schedule: Q01DX005 (ip), vehicle: saline with Tween-80 107 % of control | dose: 25.0 mg/kg/injection, schedule: Q01DX005 (ip), vehicle: saline with Tween-80 108 % of control | [7] 108 % of control and 114 % of control | [8] 109 % of control

O=[N+]([O-])c1c(N2CCN(CCO)CC2)ccc2nonc12
inactive: dose: 50.0 mg/kg/injection, schedule: Q01DX009 (ip), vehicle: suspension in saline 100 % of control | dose: 100.0 mg/kg/injection, schedule: Q01DX009 (ip), vehicle: suspension in saline 108 % of control

CC12NC(=O)NC1(C)NC(=O)N2 (configuration not stated)
inactive: dose: 50.0 mg/kg/injection, schedule: Q01DX009 (ip), vehicle: saline 107 % of control | dose: 100.0 mg/kg/injection, schedule: Q01DX009 (ip), vehicle: saline 87 % of control | dose: 100.0 mg/kg/injection, schedule: Q04DX003 (ip), vehicle: saline 103 % of control | dose: 200.0 mg/kg/injection, schedule: Q04DX003 (ip), vehicle: saline 97 % of control

CC1(C)OC(=O)C(=Cc2ccc(-c3ccccc3[N+](=O)[O-])o2)C(=O)O1
inactive: [1] 92 % of control | [2] 105 % of control | [3] 100 % of control

Nc1ccc([N+](=O)[O-])cc1C(=O)NCCc1ccncc1
inactive: [7] 95 % of control | [8] 97 % of control | dose: 200.0 mg/kg/injection, schedule: Q01DX005 (ip), vehicle: saline with Tween-80 99 % of control

C=C1C(=O)OC2/C=C(\C)CC/C=C(/C(=O)OC)C(OC(C)=O)C(OC(=O)C(C)(O)C(C)O)C12 (configuration not stated)
inactive: dose: 3.0 mg/kg/injection, schedule: Q01DX009 (ip), vehicle: Klucel (hydroxypropylcellulose) (HPC) 116 % of control | dose: 12.0 mg/kg/injection, schedule: Q01DX009 (ip), vehicle: Klucel (hydroxypropylcellulose) (HPC) 122 % of control | dose: 24.0 mg/kg/injection, schedule: Q01DX009 (ip), vehicle: Klucel (hydroxypropylcellulose) (HPC) 120 % of control
